# Data: patent publication US20260265271A1, “Cereblon Ligands and Uses Thereof” (REGENTS OF THE UNIVERSITY OF MICHIGAN, priority 2022, published 2026)
# Counter-ions that a name gives are not always drawn.
# Target: T1, IKZF2 (Homo sapiens, UniProt Q96SW2+Q9UKS7)
# T1 construct: host or cells: Jurkat-IKZF2-HiBiT
# Test: IKZF2 HiBiT degradation assay (Jurkat-IKZF2-HiBiT)
# Format: cell-based
# Details: read-out: IKZF2 degradation DC50; Jurkat-IKZF2-HiBiT cells, 24 hours
# Method: Degradation of IKZF2 protein was determined by IKZF2 HiBiT assay using the Jurkat-IKZF2-HiBiT (Promega) cell line. […] Compounds were serially diluted in culture medium, and 20 μl of the diluted compounds were added to the appropriate wells of the plate. After the addition of compounds, the cells were incubated at 37° C. in an atmosphere of 5% CO2 for 24 hours. At the end of treatment, 40 ul of Nano-Glo HiBiT Lytic Detection Reagent (Promega) was added to each well, and then the plates were incubated at room temperature for 10-20 minutes. The luminescent signal was measured using a CALRIOstar plate reader (BMG Labtech). The readings were normalized to the DMSO-treated cells and the IC50 was calculated by nonlinear regression (four parameters sigmoid fitted with variable slope, least squares fit, and no constraint) analysis using the GraphPad Prism 8 software.
# T1 sequence (Q9UKS7 whole entry): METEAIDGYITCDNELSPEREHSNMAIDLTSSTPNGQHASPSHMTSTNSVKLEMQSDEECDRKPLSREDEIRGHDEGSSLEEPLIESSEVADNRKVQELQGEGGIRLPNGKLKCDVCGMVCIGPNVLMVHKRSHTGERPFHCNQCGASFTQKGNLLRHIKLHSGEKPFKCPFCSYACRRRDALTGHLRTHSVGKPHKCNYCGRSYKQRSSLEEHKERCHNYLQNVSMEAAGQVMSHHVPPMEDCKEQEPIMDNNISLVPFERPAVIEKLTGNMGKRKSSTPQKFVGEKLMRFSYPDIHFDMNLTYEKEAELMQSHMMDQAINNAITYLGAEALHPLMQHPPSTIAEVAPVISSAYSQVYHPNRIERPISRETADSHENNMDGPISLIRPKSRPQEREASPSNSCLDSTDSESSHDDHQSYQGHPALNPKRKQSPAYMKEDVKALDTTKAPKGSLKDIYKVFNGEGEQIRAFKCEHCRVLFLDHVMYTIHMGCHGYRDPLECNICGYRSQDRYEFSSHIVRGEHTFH
# T1 sequence (Q96SW2 whole entry): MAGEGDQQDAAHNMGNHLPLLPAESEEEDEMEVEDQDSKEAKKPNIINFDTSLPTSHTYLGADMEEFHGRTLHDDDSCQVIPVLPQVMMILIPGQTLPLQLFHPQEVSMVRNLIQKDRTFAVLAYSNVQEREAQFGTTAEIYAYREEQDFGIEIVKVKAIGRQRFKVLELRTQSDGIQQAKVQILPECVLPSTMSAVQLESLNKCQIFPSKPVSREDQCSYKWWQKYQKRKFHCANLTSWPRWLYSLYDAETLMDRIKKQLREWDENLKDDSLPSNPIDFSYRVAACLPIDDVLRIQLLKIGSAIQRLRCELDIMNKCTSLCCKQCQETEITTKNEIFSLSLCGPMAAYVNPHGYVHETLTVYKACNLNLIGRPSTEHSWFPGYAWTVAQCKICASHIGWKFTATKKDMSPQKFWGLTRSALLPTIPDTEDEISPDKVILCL
# T1 sequence (Q16531 2-1140 partner limits assumed): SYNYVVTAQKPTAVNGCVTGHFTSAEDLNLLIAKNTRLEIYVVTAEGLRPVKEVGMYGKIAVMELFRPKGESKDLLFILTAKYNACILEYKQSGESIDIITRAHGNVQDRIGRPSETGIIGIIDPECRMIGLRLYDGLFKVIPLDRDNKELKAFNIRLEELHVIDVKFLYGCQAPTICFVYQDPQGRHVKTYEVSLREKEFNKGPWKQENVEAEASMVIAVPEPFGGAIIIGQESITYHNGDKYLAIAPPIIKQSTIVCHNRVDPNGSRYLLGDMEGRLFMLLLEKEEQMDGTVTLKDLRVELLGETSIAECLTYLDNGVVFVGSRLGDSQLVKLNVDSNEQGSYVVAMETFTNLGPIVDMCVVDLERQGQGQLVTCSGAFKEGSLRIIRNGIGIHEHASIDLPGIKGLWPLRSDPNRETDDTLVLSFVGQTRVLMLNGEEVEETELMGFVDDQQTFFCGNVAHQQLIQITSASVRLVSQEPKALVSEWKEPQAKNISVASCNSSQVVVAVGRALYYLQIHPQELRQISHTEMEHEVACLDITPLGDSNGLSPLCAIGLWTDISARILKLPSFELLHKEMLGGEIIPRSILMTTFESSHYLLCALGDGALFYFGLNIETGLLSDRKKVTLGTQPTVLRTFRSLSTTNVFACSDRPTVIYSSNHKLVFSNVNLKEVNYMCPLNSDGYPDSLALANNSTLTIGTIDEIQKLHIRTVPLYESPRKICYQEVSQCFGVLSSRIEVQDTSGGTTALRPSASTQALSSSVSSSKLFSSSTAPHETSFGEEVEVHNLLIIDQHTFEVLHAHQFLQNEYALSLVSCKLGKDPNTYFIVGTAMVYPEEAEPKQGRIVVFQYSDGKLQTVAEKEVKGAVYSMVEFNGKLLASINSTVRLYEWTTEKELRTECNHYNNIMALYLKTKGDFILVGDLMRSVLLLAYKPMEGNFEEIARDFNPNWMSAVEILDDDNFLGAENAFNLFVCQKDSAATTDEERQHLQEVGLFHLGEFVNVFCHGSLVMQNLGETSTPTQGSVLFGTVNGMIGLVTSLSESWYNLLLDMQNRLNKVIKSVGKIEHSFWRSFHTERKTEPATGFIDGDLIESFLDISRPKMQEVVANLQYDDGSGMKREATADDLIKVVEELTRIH
row,SMILES,DC50 [nM]
1,"O=C1CC[C@H](N2Cc3cc4c(cc3C2=O)OC[C@@H]2CN(Cc3cccc(NC(=O)c5ccccc5Cl)c3)CCN42)C(=O)N1 [Compound C25, 2-chloro-N-(3-(((S)-9-((S)-2,6-dioxopiperidin-3-yl)-8-oxo-1,2,4a,5,9,10-hexahydro-8H-pyrazino[1′,2′:4,5][1,4]oxazino[2,3-f]isoindol-3(4H)-yl)methyl)phenyl)benzamide]",> 1000
2,"O=C1CCC(N2Cc3cc4c(cc3C2=O)OC[C@H]2CN(CC3CCCC3)CCN42)C(=O)N1 (stereo partly drawn) [Compound C30, 3-((R)-3-(cyclopentylmethyl)-8-oxo-1,2,3,4,4a,5,8,10-octahydro-9H-pyrazino[1′,2′:4,5][1,4]oxazino[2,3-f]isoindol-9-yl)piperidine-2,6-dione]",> 1000
3,"O=C1CC[C@H](N2Cc3cc4c(cc3C2=O)OC[C@@H]2CN(CC3CCC5(CC3)COC5)CCN42)C(=O)N1 [Compound C35, (S)-3-((S)-3-((2-oxaspiro[3.5]nonan-7-yl)methyl)-8-oxo-1,2,3,4,4a,5,8,10-octahydro-9H-pyrazino[1′,2′:4,5][1,4]oxazino[2,3-f]isoindol-9-yl)piperidine-2,6-dione]",933
4,"O=C1CC[C@H](N2Cc3cc4c(cc3C2=O)OC[C@@H]2CN(Cc3cccc(NS(=O)(=O)c5ccccc5)c3)CCN42)C(=O)N1 [Compound C28, N-(3-(((S)-9-((S)-2,6-dioxopiperidin-3-yl)-8-oxo-1,2,4a,5,9,10-hexahydro-8H-pyrazino[1′,2′:4,5][1,4]oxazino[2,3-f]isoindol-3(4H)-yl)methyl)phenyl)benzenesulfonamide]",> 1000

# Same assay, conditions: read-out: IKZF2 degradation Dmax (%)
row,SMILES,Dmax [%]
1,"O=C1CC[C@H](N2Cc3cc4c(cc3C2=O)OC[C@@H]2CN(Cc3cccc(NC(=O)c5ccccc5Cl)c3)CCN42)C(=O)N1 [Compound C25, 2-chloro-N-(3-(((S)-9-((S)-2,6-dioxopiperidin-3-yl)-8-oxo-1,2,4a,5,9,10-hexahydro-8H-pyrazino[1′,2′:4,5][1,4]oxazino[2,3-f]isoindol-3(4H)-yl)methyl)phenyl)benzamide]",45
2,"O=C1CCC(N2Cc3cc4c(cc3C2=O)OC[C@H]2CN(CC3CCCC3)CCN42)C(=O)N1 (stereo partly drawn) [Compound C30, 3-((R)-3-(cyclopentylmethyl)-8-oxo-1,2,3,4,4a,5,8,10-octahydro-9H-pyrazino[1′,2′:4,5][1,4]oxazino[2,3-f]isoindol-9-yl)piperidine-2,6-dione]",0
3,"O=C1CC[C@H](N2Cc3cc4c(cc3C2=O)OC[C@@H]2CN(CC3CCC5(CC3)COC5)CCN42)C(=O)N1 [Compound C35, (S)-3-((S)-3-((2-oxaspiro[3.5]nonan-7-yl)methyl)-8-oxo-1,2,3,4,4a,5,8,10-octahydro-9H-pyrazino[1′,2′:4,5][1,4]oxazino[2,3-f]isoindol-9-yl)piperidine-2,6-dione]",66
4,"O=C1CC[C@H](N2Cc3cc4c(cc3C2=O)OC[C@@H]2CN(Cc3cccc(NS(=O)(=O)c5ccccc5)c3)CCN42)C(=O)N1 [Compound C28, N-(3-(((S)-9-((S)-2,6-dioxopiperidin-3-yl)-8-oxo-1,2,4a,5,9,10-hexahydro-8H-pyrazino[1′,2′:4,5][1,4]oxazino[2,3-f]isoindol-3(4H)-yl)methyl)phenyl)benzenesulfonamide]",11

# Target: wild-type human CRBN protein (Homo sapiens, UniProt Q96SW2)
# Test: biochemical
# Details: not given
# Chain of wild-type human CRBN protein (Q96SW2 whole entry): as the sequence (Q96SW2 whole entry) above
row,SMILES,IC50 [nM]
1,"CN1C[C@@H]2CNCCN2c2cc3c(cc21)C(=O)N(C1CCC(=O)NC1=O)C3 (stereo partly drawn) [Compound B7, 3-((S)-6-methyl-8-oxo-2,3,4,4a,5,6,8,10-octahydropyrazino[1,2-a]pyrrolo[3,4-g]quinoxalin-9(1H)-yl)piperidine-2,6-dione trifluoroacetate salt]",740
2,"O=C1CCC(N2Cc3cc4c(cc3C2=O)OC[C@H]2CNCCN42)C(=O)N1 (stereo partly drawn) [Compound B6, 3-((R)-8-oxo-1,2,3,4,4a,5,8,10-octahydro-9H-pyrazino[1′,2′:4,5][1,4]oxazino[2,3-f]isoindol-9-yl)piperidine-2,6-dione trifluoroacetate salt]",3100
3,"CN(C(=O)c1ccc2c(n1)OC[C@H]1CNCCN21)C1CCC(=O)NC1=O (stereo partly drawn) [Compound B20, (4aR)-N-(2,6-dioxopiperidin-3-yl)-N-methyl-1,2,3,4,4a,5-hexahydropyrazino[1,2-d]pyrido[2,3-b][1,4]oxazine-8-carboxamide]",17500
4,"CN(C(=O)c1ccc2c(c1)OC[C@@H]1CNCCN21)C1CCC(=O)NC1=O (stereo partly drawn) [Compound B24, (4aS)—N-(2,6-dioxopiperidin-3-yl)-N-methyl-1,2,3,4,4a,5-hexahydrobenzo[b]pyrazino[1,2-d][1,4]oxazine-8-carboxamide]",3400
5,"CN1CCN2c3cc4c(cc3N(C)C[C@@H]2C1)C(=O)N(C1CCC(=O)NC1=O)C4 (stereo partly drawn) [Compound B8, 3-((S)-3,6-dimethyl-8-oxo-2,3,4,4a,5,6,8,10-octahydropyrazino[1,2-a]pyrrolo[3,4-g]quinoxalin-9(1H)-yl)piperidine-2,6-dione]",940
6,"O=C1CC[C@H](NC(=O)c2ccc3c(c2)OC[C@H]2CNCCN32)C(=O)N1 [Compound B22, (R)—N—((S)-2,6-dioxopiperidin-3-yl)-1,2,3,4,4a,5-hexahydrobenzo[b]pyrazino[1,2-d][1,4]oxazine-8-carboxamide]",23000
7,"O=C1CC[C@@H](N2Cc3cc4c(cc3C2=O)OC[C@@H]2CNCCN42)C(=O)N1 [Compound B2, (R)-3-((S)-8-oxo-1,2,3,4,4a,5,8,10-octahydro-9H-pyrazino[1′,2′:4,5][1,4]oxazino[2,3-f]isoindol-9-yl)piperidine-2,6-dione]",5200
8,"CC(C)(C)OC(=O)N1CCN2c3cc4c(cc3OC[C@@H]2C1)C(=O)N([C@H]1CCC(=O)NC1=O)C4 [Compound B3, (S)-tert-butyl (4aS)-9-(2,6-dioxopiperidin-3-yl)-8-oxo-1,2,4a,5,9,10-hexahydro-8H-pyrazino[1′,2′:4,5][1,4]oxazino[2,3-f]isoindole-3(4H)-carboxylate]",1700
9,"CN1CCN2c3ccc4c(c3N(C)C[C@@H]2C1)CN(C1CCC(=O)NC1=O)C4=O (stereo partly drawn) [Compound B12, 3-((S)-4,7-dimethyl-1-oxo-3,4,5,5a,6,7,8,9-octahydropyrazino[1,2-a]pyrrolo[3,4-f]quinoxalin-2(1H)-yl)piperidine-2,6-dione]",580
10,"O=C1CCC(N2Cc3cc4c(cc3C2=O)OC[C@@H]2CNCCN42)C(=O)N1 (stereo partly drawn) [Compound B1, 3-((S)-8-oxo-1,2,3,4,4a,5,8,10-octahydro-9H-pyrazino[1′,2′:4,5][1,4]oxazino[2,3-f]isoindol-9-yl)piperidine-2,6-dione hydrochloride salt]",2100
11,"O=C1CCC(N2Cc3c(ccc4c3N3CCNC[C@H]3CO4)C2=O)C(=O)N1 (stereo in doubt) [Compound B16, (R)-3-((S)-3-oxo-1,3,7,7a,8,9,10,11-octahydro-2H-pyrazino[1′,2′:4,5][1,4]oxazino[3,2-e]isoindol-2-yl)piperidine-2,6-dione]",1400
12,"O=C1CC[C@H](NC(=O)c2ccc3c(n2)OC[C@H]2CNCCN32)C(=O)N1 [Compound B19, (R)-N-((S)-2,6-dioxopiperidin-3-yl)-1,2,3,4,4a,5-hexahydropyrazino[1,2-d]pyrido [2,3-b][1,4]oxazine-8-carboxamide]",30200
13,"N[C@H]1C[C@H]2COc3cc4c(cc3N2C1)CN([C@H]1CCC(=O)NC1=O)C4=O [Compound B17, (S)-3-((2S,3aS)-2-amino-7-oxo-2,3,3a,4,7,9-hexahydro-1H,8H-pyrrolo[1′,2′:4,5][1,4]oxazino[2,3-f]isoindol-8-yl)piperidine-2,6-dione]",130
14,"CN1CCN2c3cc4c(cc3NC(=O)[C@@H]2C1)C(=O)N(C1CCC(=O)NC1=O)C4 (stereo partly drawn) [Compound B10, (4aS)-9-(2,6-dioxopiperidin-3-yl)-3-methyl-2,3,4,4a,9,10-hexahydropyrazino[1,2-a]pyrrolo[3,4-g]quinoxaline-5,8(1H,6H)-dione]",600
15,"CC(C)(C)OC(=O)N1CCN2c3cc4c(cc3OC[C@@H]2C1)C(=O)N([C@@H]1CCC(=O)NC1=O)C4 [Compound B4, (R)-tert-butyl (4aS)-9-(2,6-dioxopiperidin-3-yl)-8-oxo-1,2,4a,5,9,10-hexahydro-8H-pyrazino[1′,2′:4,5][1,4]oxazino[2,3-f]isoindole-3(4H)-carboxylate]",3500
16,"O=C1CC[C@H](NC(=O)c2ccc3c(c2)OC[C@@H]2CNCCN32)C(=O)N1 [Compound B23, (S)—N—((S)-2,6-dioxopiperidin-3-yl)-1,2,3,4,4a,5-hexahydrobenzo[b]pyrazino[1,2-d][1,4]oxazine-8-carboxamide]",25000
17,N[C@H]1C[C@H]2COc3cc4c(cc3N2C1)C(=O)N(C1CCC(=O)NC1=O)C4=O (some centres unmarked) [Compound B18],220
18,"CN(C(=O)c1ccc2c(c1)OC[C@H]1CNCCN21)C1CCC(=O)NC1=O (stereo partly drawn) [Compound B21, (4aR)—N-(2,6-dioxopiperidin-3-yl)-N-methyl-1,2,3,4,4a,5-hexahydrobenzo[b]pyrazino[1,2-d][1,4]oxazine-8-carboxamide]",4600

# The remaining lines, values ahead:
row,IC50 [nM],SMILES
1,240,"O=C1CC[C@H](N2Cc3c(ccc4c3OC[C@@H]3CN(Cc5ccc(F)c(F)c5)CCN43)C2=O)C(=O)N1 [Compound C12, (S)-3-((S)-7-(3,4-difluorobenzyl)-1-oxo-1,3,5,5a,6,7,8,9-octahydro-2H-pyrazino[1′,2′:4,5][1,4]oxazino[2,3-e]isoindol-2-yl)piperidine-2,6-dione]"
2,90,"O=C1CC[C@H](N2Cc3c(ccc4c3OC[C@@H]3CN(Cc5ccc(C(F)F)cc5)CCN43)C2=O)C(=O)N1 [Compound C11, (S)-3-((S)-7-(4-(difluoromethyl)benzyl)-1-oxo-1,3,5,5a,6,7,8,9-octahydro-2H-pyrazino[1′,2′:4,5][1,4]oxazino[2,3-e]isoindol-2-yl)piperidine-2,6-dione]"
3,470,"CCN1CCN2c3ccc4c(c3OC[C@H]2C1)CN([C@H]1CCC(=O)NC1=O)C4=O [Compound C8, (S)-3-((R)-7-ethyl-1-oxo-1,3,5,5a,6,7,8,9-octahydro-2H-pyrazino[1′,2′:4,5][1,4]oxazino[2,3-e]isoindol-2-yl)piperidine-2,6-dione]"
4,90,"O=C1CC[C@H](N2Cc3c(ccc4c3OC[C@@H]3CN(Cc5ccc(F)cc5Cl)CCN43)C2=O)C(=O)N1 [Compound C13, (S)-3-((S)-7-(2-chloro-4-fluorobenzyl)-1-oxo-1,3,5,5a,6,7,8,9-octahydro-2H-pyrazino[1′,2′:4,5][1,4]oxazino[2,3-e]isoindol-2-yl)piperidine-2,6-dione]"
5,180,"CC(=O)N1CCN2c3ccc4c(c3OC[C@H]2C1)CN([C@H]1CCC(=O)NC1=O)C4=O [Compound C9, (S)-3-((R)-7-acetyl-1-oxo-1,3,5,5a,6,7,8,9-octahydro-2H-pyrazino[1′,2′:4,5][1,4]oxazino[2,3-e]isoindol-2-yl)piperidine-2,6-dione]"
6,200,"CC(=O)N1CCN2c3ccc4c(c3OC[C@@H]2C1)CN([C@H]1CCC(=O)NC1=O)C4=O [Compound C10, (S)-3-((S)-7-acetyl-1-oxo-1,3,5,5a,6,7,8,9-octahydro-2H-pyrazino[1′,2′:4,5][1,4]oxazino[2,3-e]isoindol-2-yl)piperidine-2,6-dione]"
